# From ChEMBL document CHEMBL4118121, “Anticomplement compounds from Polygonum chinense” (Bioorg Med Chem Lett, 2018)
# pIC50: −log10 of the molar value. Calls of active or inactive are those of the source. The rule behind the calls is not given here.
# How the values were obtained:
# [1] = test system: Erythrocyte; assay: Anticomplement activity in rabbit erythrocytes assessed as concentration required for 50% hemolytic inhibition by alternative pathway pretreated for 10 mins with normal human serum followed by erythrocyte addition measured after 30 mins by spectrophotometeric method; format: functional, cell-based; conditions: Oryctolagus cuniculus
# [2] = test system: Erythrocyte; assay: Anticomplement activity in sheep erythrocytes assessed as concentration required for 50% hemolytic inhibition by classic pathway pretreated for 10 mins with guinea pig serum followed by erythrocyte addition measured after 30 mins by spectrophotometeric method; format: functional, cell-based; conditions: Ovis aries
# [3] = test system: Erythrocyte; assay: Anticomplement activity in sheep erythrocytes assessed as inhibition of hemolysis by classical pathway after 30 mins of compound treatment in normal human serum with C1q-depleted sera; format: functional, cell-based; conditions: Ovis aries
# [4] = test system: Erythrocyte; assay: Anticomplement activity in sheep erythrocytes assessed as inhibition of hemolysis by classical pathway after 30 mins of compound treatment in normal human serum with C3-depleted sera; format: functional, cell-based; conditions: Ovis aries
# [5] = test system: Erythrocyte; assay: Anticomplement activity in sheep erythrocytes assessed as inhibition of hemolysis by classical pathway after 30 mins of compound treatment in normal human serum with C5-depleted sera; format: functional, cell-based; conditions: Ovis aries
# [6] = test system: Erythrocyte; assay: Anticomplement activity in sheep erythrocytes assessed as inhibition of hemolysis by classical pathway after 30 mins of compound treatment in normal human serum with C4-depleted sera; format: functional, cell-based; conditions: Ovis aries
# [7] = test system: Erythrocyte; assay: Anticomplement activity in sheep erythrocytes assessed as inhibition of hemolysis by classical pathway after 30 mins of compound treatment in normal human serum with C2-depleted sera; format: functional, cell-based; conditions: Ovis aries
# [8] = test system: Erythrocyte; assay: Anticomplement activity in sheep erythrocytes assessed as inhibition of hemolysis by classical pathway after 30 mins of compound treatment in normal human serum with C9-depleted sera; format: functional, cell-based; conditions: Ovis aries
# [9] = test system: Erythrocyte; assay: Anticomplement activity in sheep erythrocytes assessed as inhibition of complete hemolysis by classical pathway after 30 mins of compound treatment in normal human serum; format: functional; conditions: Ovis aries, 0.5 h
# [10] = test system: Erythrocyte; assay: Anticomplement activity in sheep erythrocytes assessed as inhibition of hemolysis by classical pathway by measuring hemolysis after 30 mins of compound treatment in normal human serum with C5-depleted sera relative to control; format: functional, Ovis aries
# [11] = test system: Erythrocyte; assay: Anticomplement activity in sheep erythrocytes assessed as inhibition of hemolysis by classical pathway by measuring hemolysis after 30 mins of compound treatment in normal human serum with C3-depleted sera relative to control; format: functional, Ovis aries
# [12] = test system: Erythrocyte; assay: Anticomplement activity in sheep erythrocytes assessed as inhibition of hemolysis by classical pathway by measuring hemolysis after 30 mins of compound treatment in normal human serum with C4-depleted sera relative to control; format: functional, Ovis aries
# [13] = test system: Erythrocyte; assay: Anticomplement activity in sheep erythrocytes assessed as inhibition of hemolysis by classical pathway by measuring hemolysis after 30 mins of compound treatment in normal human serum with C9-depleted sera relative to control; format: functional, Ovis aries
SMILES,pIC50 [1],pIC50 [2],IC50 [1],IC50 [2],also measured
COC(=O)c1cc(O)c(O)c(O)c1 [GALLIC ACID METHYL ESTER],2.97,3.08,,,
CCOC(=O)c1cc(O)c(O)c(O)c1 [ETHYLGALLATE],2.91,3.00,,,
COc1cc(/C=C/C(=O)NCCc2ccc(O)cc2)ccc1O [N-TRANS-FERULOYL TYRAMINE],2.88,3.06,,,
O=C(O)/C=C/c1ccc(O)c(O)c1 [CAFFEIC ACID],3.03,3.12,,,
COc1cc2c(=O)oc3c(O)c(OC)cc4c(=O)oc(c1O)c2c34,2.88,2.96,,,
COc1c(O)cc2c(=O)oc3c(OC)c(O[C@@H]4OC[C@@H](O)[C@H](O)[C@H]4O)cc4c(=O)oc1c2c34,3.54,3.64,,,
CC1(C)OC[C@H]([C@@H]2OC(=O)[C@]3(O)[C@@H]2OC(=O)C[C@H]3c2ccc(O)cc2)O1,2.93,3.04,,,
Cc1ccc(C(=O)Nc2ccc(S(=O)(=O)O)c3cc(S(=O)(=O)O)cc(S(=O)(=O)O)c23)cc1NC(=O)c1cccc(NC(=O)Nc2cccc(C(=O)Nc3cc(C(=O)Nc4ccc(S(=O)(=O)O)c5cc(S(=O)(=O)O)cc(S(=O)(=O)O)c45)ccc3C)c2)c1 [SURAMIN],3.74,3.92,,,
CCOC(=O)[C@H]1OC(=O)c2cc(O)c(O)c(O)c2[C@@H]1[C@H](CC(=O)O)C(=O)O,3.26,3.34,,,inhibition [3]: inactive; inhibition [4]: Active; inhibition [5]: Active; inhibition [6]: Active; inhibition [7]: inactive; inhibition [8]: inactive; MIC [9]: 840 µM
COc1cc([C@@H](O)[C@@H]2C(=O)NCCc3ccc(cc3)Oc3ccc(cc3)CCNC(=O)/C=C/c3cc(OC)c(O)c2c3)ccc1O,3.14,3.28,,,
COc1cc([C@@H]2OC(=O)[C@@H]3[C@H]2CO[C@H]3c2ccc(O)c(OC)c2)ccc1O,2.94,3.06,,,
O=C(O)C[C@H](C(=O)O)[C@H]1c2c(cc(O)c(O)c2O)C(=O)O[C@@H]1C(=O)O,3.14,3.21,,,
CCOC(=O)[C@H]1OC(=O)c2cc(O)c(O)c(O)c2[C@@H]1CC(=O)OC,2.74,2.84,,,
CCOC(=O)C1CC(=O)c2oc(=O)c3cc(O)c(O)c(O)c3c21 (configuration not stated) [ETHYLBREVIFOLIN CARBOXYLATE],2.87,2.97,,,
O=C1C[C@@H](c2ccc(O)cc2)[C@]2(O)C(=O)O[C@@H]([C@H](O)CO)[C@H]2O1,3.00,3.14,,,inhibition [3]: inactive; inhibition (INH) [10]: <10.6%; inhibition (INH) [11]: <10.6%; inhibition [7]: inactive; inhibition (INH) [12]: <10.6%; inhibition (INH) [13]: <10.6%; MIC [9]: 1760 µM
COC(=O)C1CC(=O)c2oc(=O)c3cc(O)c(O)c(O)c3c21 (configuration not stated) [METHYLBREVIFOLIN CARBOXYLATE],2.90,2.98,,,
COc1c(O)cc2c(=O)oc3c(O)c(O)cc4c(=O)oc1c2c34,3.17,3.24,,,
CC(=O)N[C@H]1[C@@H](O[C@H]2[C@H](O)[C@@H](O)[C@H](O[C@H]3[C@H](OS(=O)(=O)O)[C@@H](OS(=O)(=O)O)[C@@H](O[C@H]4[C@H](O)[C@@H](OS(=O)(=O)O)C(O)O[C@H]4C(=O)O)O[C@@H]3CO)O[C@@H]2C(=O)O)O[C@H](COS(=O)(=O)O)[C@@H](O)[C@@H]1O (some centres not stated),,,135 µg/mL,93 µg/mL,
COc1cc([C@H]2c3cc(O)c(OC)cc3/C(=C/C(=O)NCCc3ccc(O)cc3)[C@H]2C(=O)NCCc2ccc(O)cc2)ccc1O,3.38,3.41,,,inhibition [4]: Active; inhibition [6]: Active; MIC [9]: 820 µM
COc1cc(/C=C/C(=O)OCCc2ccc(O)cc2)ccc1O,3.00,3.18,,,
CCOC(=O)[C@@H](CC(=O)OC)[C@H]1c2c(cc(O)c(O)c2O)C(=O)O[C@@H]1C(=O)OCC,2.82,2.90,,,
COc1c(O)cc2c(=O)oc3c(OC)c(O)cc4c(=O)oc1c2c34,2.97,3.06,,,
CCOC(=O)[C@@H](CC(=O)O)[C@H]1c2c(cc(O)c(O)c2O)C(=O)O[C@@H]1C(=O)OCC,3.06,3.11,,,
O=C1CCc2c1oc(=O)c1cc(O)c(O)c(O)c21,2.81,2.90,,,
COc1c(O)cc2c(=O)oc3c(O)c(O[C@@H]4O[C@@H](C)[C@H](O)[C@@H](O)[C@H]4O)cc4c(=O)oc1c2c34,3.59,3.74,,,inhibition [3]: Active; inhibition [4]: Active; inhibition [5]: Active; MIC [9]: 340 µM
O=C(O)c1cc(O)c(O)c(O)c1 [GALLIC ACID],3.13,3.23,,,
COc1cc(/C=C(/C(=O)NCCc2ccc(O)cc2)c2cc(OC)c(O)c(OC)c2)ccc1O,2.55,2.87,,,
O=c1oc2c(O)c(O)cc3c(=O)oc4c(O)c(O)cc1c4c23 [ELLAGIC ACID],3.49,3.49,,,
